Reference: US20240425463A1, “PROCESS FOR MANUFACTURING A DIPHENYLPHRAZINE DERIVATIVE” (ACTELION PHARMACEUTICALS LTD, priority 2021, published 2024)
Structures can show the parent of a compound that is named as a salt.

How the values were obtained:
[1] = Feasibility pK rat study (LAI potential of aqueous micro-suspensions, IM); assay type: in vivo; conditions: 50 mg/kg, aqueous micro-suspension 125 mg/mL; for long-acting release profile (yes/no): citrate buffer pH 5, FIG. 9
Procedure: For this study, aqueous micro-suspensions of Selexipag, {4-[(5,6-diphenylpyrazin-2-yl)(propan-2-yl)amino]butoxy}acetic acid and calcium; {4-[(5,6-diphenylpyrazin-2-yl)(propan-2-yl)amino]butoxy}acetate were prepared. An overview of the design of the study can be found in Table 1.
Release profiles and mean AUC of the different formulations are depicted in FIG. 9.

[2] = test system: pulmonary arterial hypertension; conditions: phase III, patients with pulmonary arterial hypertension; cited from earlier work
[3] = Solubility in water / aqueous media and dissolution rate; assay type: physicochemical; conditions: for solubility: water / aqueous media
[4] = Physical stability of solid form on storage (7 days, humidity); assay type: physicochemical
[5] = Hygroscopicity (change in mass between 0 and 90% RH); assay type: physicochemical
[6] = 7 days storage at 25° C./97% RH
[7] = 7 days storage at 40° C./75% RH

Compound | long-acting release profile (yes/no) [1] | dissolution rate [3] | solubility [3] | physical stability after storage [4, 6] | physical stability after storage [4, 7] | further results
CC(C)N(CCCCOCC(=O)NS(C)(=O)=O)c1cnc(-c2ccccc2)c(-c2ccccc2)n1 [Selexipag, 2-{4-[(5,6-diphenylpyrazin-2-yl)(propan-2-yl)amino]butoxy}-N-(methanesulfonyl)acetamide] | did not demonstrate a long-acting release profile | high | high | – | – | risk of the primary composite end point of death or a complication related to pulmonary arterial hypertension vs placebo [2]: significantly lower
Calcium; {4-[(5,6-diphenylpyrazin-2-yl)(propan-2-yl)amino]butoxy}acetate [Amorphous Form] | – | – | – | physically stable | physically stable | –
calcium; {4-[(5,6-diphenylpyrazin-2-yl)(propan-2-yl)amino]butoxy}acetate [Form 2] | – | – | – | physically stable | physically stable | hygroscopicity [5]: slightly hygroscopic; reversible change in mass ([5]; between 0 and 90% RH): 2%
CC(C)N(CCCCOCC(=O)O)c1cnc(-c2ccccc2)c(-c2ccccc2)n1 [Ca-salt of ACT-333679, calcium; {4-[(5,6-diphenylpyrazin-2-yl)(propan-2-yl)amino]butoxy}acetate] | – | – | – | – | – | duration of long-acting release profile ([1]; FIG. 9): up to 336 hours; time until which AUC increases ([1]; FIG. 9): ≤ 720 h; plasma concentrations compared to both other groups ([1]; PVP K17 citrate buffer, FIG. 9): significant lower plasma concentrations; solubility ([3]; listed as calcium salt of selexipag metabolite): low solubility in water; solubility ([3]; {4-[(5,6-diphenylpyrazin-2-yl)(propan-2-yl)amino]butoxy}acetate): low solubility in aqueous media
CC(C)N(CCCCOCC(=O)O)c1cnc(-c2ccccc2)c(-c2ccccc2)n1 [Selexipag metabolite, 2-(4-((5,6-diphenylpyrazin-2-yl)(isopropyl)amino)butoxy)acetic acid] | did not demonstrate a long-acting release profile | high | high | – | – | –
